Earlier results as cited in PubChem BioAssay AID1259409 (Chemical Carcinogenesis Research Information System (CCRIS), 2018).

Test system: rodent chemically induced tumor inhibition, incidence and multiplicity
Assay: CCRIS tumor inhibitor studies
Description: The CCRIS database contains chemical records with carcinogenicity, mutagenicity, tumor promotion, and tumor inhibition test results. It was developed by the National Cancer Institute (NCI). Data are derived from studies cited in primary journals, current awareness tools, NCI reports, and other sources. Test results have been reviewed by experts in carcinogenesis and mutagenesis.
CCRIS provides historical information from the years 1985 - 2011. It is no longer updated.
This is an archive assay for CCRIS tumor inhibitor studies.

CS(=O)(=O)Nc1ccc([N+](=O)[O-])cc1Oc1ccccc1
tumour outcome (control, treated, inhibition, significance) (Carcinogen: 2-AMINO-1-METHYL-6-PHENYL-1H-IMIDAZO[4,5-B]PYRID INE [105650-23-5], Dose [Inhibitor]: 0, 400 PPM IN DIET FOR DURATION OF STUDY BEGINNING 1 D PRIOR TO CARCINOGEN TREATMENT (STUDY DURATION: 21 WK), Route [Inhibitor]: ORAL, Species: RAT, Strain/Sex: SPRAGUE-DAWLEY/FEMALE, Target Tissue: Type of Lesion: MAMMARY GLAND: DUCTAL CARCINOMA, Dose [Carcinogen]: 85 MG/KG BW 4X/WK FOR 2 WK): 30/42 (71%), 19/37 (51%), 28.2%, not significant | tumour outcome (control, treated, inhibition, significance) (Carcinogen: 7, 12-DIMETHYLBENZ(A)ANTHRACENE [57-97-6], Dose [Inhibitor]: 5 MG/KG BW TWICE WEEKLY BEGINNING 3 D BEFORE FIRST CARCINOGEN DOSE FOR 13 WK (STUDY DURATION: 13 WK), Route [Inhibitor]: SUBCUTANEOUS, Species: RAT, Strain/Sex: SPRAGUE-DAWLEY/FEMALE, Target Tissue: Type of Lesion: MAMMARY GLAND: TUMOR, Dose [Carcinogen]: 10 MG THREE TIMES BETWEEN POSTNATAL DAYS 45-59): 23/24 (95.8%), 24/25 (96.0%), -0.2%, not significant | tumour outcome (control, treated, inhibition, significance) (Carcinogen: AZOXYMETHANE (25843-45-2), Dose [Inhibitor]: 0, 0.04% 1 WK AFTER END OF DEXTRAN SODIUM SULFATE TREATMENT FOR 14 WKS (STUDY DURATION: 17 WKS), Route [Inhibitor]: DIET, Species: MOUSE, Strain/Sex: CD-1/FEMALE (10,10)/(10,10), Target Tissue: Type of Lesion: COLON: ADENOMA, Dose [Carcinogen]: 10 MG/KG ONCE, Promoter: DEXTRAN SODIUM SULFATE (9011-18-1)): 10/10 (100%), 6/10 (60%), 40%, p<0.05 | tumour outcome (control, treated, inhibition, significance) (Carcinogen: AZOXYMETHANE (25843-45-2), Dose [Inhibitor]: 0, 0.04% IN DIET 1 WK AFTER END OF DEXTRAN SODIUM SULFATE TREATMENT FOR 14 WKS (STUDY DURATION: 17 WKS), Route [Inhibitor]: DIET, Species: MOUSE, Strain/Sex: CD-1/FEMALE (10,10)/(10,10), Target Tissue: Type of Lesion: COLON: ADENOCARCINOMA, Dose [Carcinogen]: 10 MG/KG ONCE, Promoter: DEXTRAN SODIUM SULFATE (9011-18-1)): 10/10 (100%), 4/10 (40%), 60%, p<0.01 | tumour outcome (control, treated, inhibition, significance) (Carcinogen: AZOXYMETHANE, 25843-45-2, Dose [Inhibitor]: 0, 200 PPM IN DIET FOR DURATION OF STUDY BEGINNING 1D PRIOR TO CARCINOGEN TREATMENT (STUDY DURATION: 30 WK), Route [Inhibitor]: ORAL, Species: MOUSE, Strain/Sex: ICR/MALE, Target Tissue: Type of Lesion: COLON: CARCINOMA, Dose [Carcinogen]: 10 MG/KG BW IN SALINE 1/WK FOR 6 WK, Promoter: NONE USED): 14/28 (50%), 12/37 (32%), 36%, not significant | tumour outcome (control, treated, inhibition, significance) (Carcinogen: AZOXYMETHANE, 25843-45-2, Dose [Inhibitor]: 0, 400 PPM IN DIET FOR DURATION OF STUDY BEGINNING 1 D PRIOR TO CARCINOGEN TREATMENT (STUDY DURATION: 30 WK), Route [Inhibitor]: ORAL, Species: MOUSE, Strain/Sex: ICR/MALE, Target Tissue: Type of Lesion: COLON: CARCINOMA, Dose [Carcinogen]: 10 MG/KG BW IN SALINE 1/WK FOR 6 WK, Promoter: NONE USED): 14/28 (50%), 10/40 (25%), 50%, p<0.05 | tumour outcome (control, treated, inhibition, significance) (Carcinogen: N-BUTYL-N-(4-HYDROXYBUTYL)NITROSAMINE, 3817-11-6, Dose [Inhibitor]: 0, 100 PPM IN DIET FOR 12 WK BEGINNING POST CARCINOGEN TREATMENT (STUDY DURATION: 20 WK), Route [Inhibitor]: ORAL, Species: RAT, Strain/Sex: F344/MALE, Target Tissue: Type of Lesion: URINARY BLADDER: TRANSITIONAL CELL CARCINOMA, Dose [Carcinogen]: 0.05% IN DRINKING WATER FOR 8 WK, Promoter: NONE USED): 18/20 (90%), 12/20 (60%), 33%, not significant | tumour outcome (control, treated, inhibition, significance) (Carcinogen: N-BUTYL-N-(4-HYDROXYBUTYL)NITROSAMINE, 3817-11-6, Dose [Inhibitor]: 0, 200 PPM IN DIET FOR 12 WK BEGINNING POST CARCINOGEN TREATMENT (STUDY DURATION: 20 WK), Route [Inhibitor]: ORAL, Species: RAT, Strain/Sex: F344/MALE, Target Tissue: Type of Lesion: URINARY BLADDER: TRANSITIONAL CELL CARCINOMA, Dose [Carcinogen]: 0.05% IN DRINKING WATER FOR 8 WK, Promoter: NONE USED): 18/20 (90%), 8/16 (50%), 44%, p<0.05 | tumour outcome (control, treated, inhibition, significance) (Carcinogen: N-BUTYL-N-(4-HYDROXYBUTYL)NITROSAMINE, 3817-11-6, Dose [Inhibitor]: 0, 400 PPM IN DIET FOR 12 WK BEGINNING POST CARCINOGEN TREATMENT (STUDY DURATION: 20 WK), Route [Inhibitor]: ORAL, Species: RAT, Strain/Sex: F344/MALE, Target Tissue: Type of Lesion: URINARY BLADDER: TRANSITIONAL CELL CARCINOMA, Dose [Carcinogen]: 0.05% IN DRINKING WATER FOR 8 WK, Promoter: NONE USED): 18/20 (90%), 5/19 (26%), 71%, p<0.0002 | tumour outcome (control, treated, inhibition, significance) (Carcinogen: N-METHYL-N-NITROSOUREA [684-93-5], Dose [Inhibitor]: 5 MG/KG BW TWICE WEEKLY BEGINNING 5 D BEFORE FIRST CARCINOGEN DOSE FOR 27 WK (STUDY DURATION: 27 WK), Route [Inhibitor]: SUBCUTANEOUS, Species: RAT, Strain/Sex: SPRAGUE-DAWLEY/FEMALE, Target Tissue: Type of Lesion: MAMMARY GLAND: TUMOR, Dose [Carcinogen]: 50 MG/KG BW TWICE ON POSTNATAL DAYS 51 AND 58): 17/18 (94%), 10/18 (55.6%), 41%, p<0.05

CC(=O)[C@H]1CC[C@H]2[C@@H]3CCC4=CC(=O)CC[C@]4(C)[C@H]3CC[C@]12C
tumour outcome (control, treated, inhibition, significance) (Carcinogen: 7,12-DIMETHYLBENZ[A]ANTHRACENE, 57-97-6, Dose [Inhibitor]: 0, 1 MG/100 G BW 3/WK FOR 150 D BEGINNING POST CARCINOGEN TREATMENT (STUDY DURATION: 150 D), Route [Inhibitor]: SUBCUTANEOUS, Species: RAT, Strain/Sex: WISTAR/FEMALE, Target Tissue: Type of Lesion: MAMMARY GLAND: ADENOCARCINOMA, Dose [Carcinogen]: 4 MG IN 0.1 ML OF SESAME OIL INJECTED ONCE INTO THE EXPOSED MAMMARY TISSUE OF HYPERPROLACTINEMIC RATS ON DAY 73 OF AGE, Promoter: NONE USED): 8/11 (73%), 5/11 (45%), 38%, p<0.05 | tumour outcome (control, treated, inhibition, significance) (Carcinogen: N-METHYL-N-NITROSOUREA, 684-93-5, Dose [Inhibitor]: 0, 2560 MG/KG IN DIET FOR THE DURATION OF STUDY BEGINNING 7 D PRIOR TO CARCINOGEN DOSE (STUDY DURATION: 187 D), Route [Inhibitor]: ORAL, Species: RAT, Strain/Sex: SPRAGUE-DAWLEY/FEMALE, Target Tissue: Type of Lesion: MAMMARY GLAND: TUMOR, Dose [Carcinogen]: 50 MG/KG BW ONCE, Promoter: NONE USED): 100%, 95%, 5%, not significant

CN(C(=O)c1c(O)c2ccccc2n(C)c1=O)c1ccccc1
tumour outcome (control, treated, inhibition, significance) (Carcinogen: N-METHYL-N-NITROSOUREA, 684-93-5, Dose [Inhibitor]: 0, 25 MG/KG/D IN DRINKING WATER FOR 12 MO BEGINNING 1 WK POST CARCINOGEN DOSE (STUDY DURATION: 12 MO), Route [Inhibitor]: ORAL, Species: RAT, Strain/Sex: LOBUND WISTAR/MALE, Target Tissue: Type of Lesion: SEMINAL VESICLE/PROSTATE: TUMOR, Dose [Carcinogen]: 30 MG/KG ONCE AT 90 D OF AGE, Promoter: TESTOSTERONE PROPIONATE, 57-85-2): 90%, 40%, 56%, not calculated

CC(C)(C)c1cc(C(C)(C)C)c(O)c(C(C)(C)C)c1
tumour outcome (control, treated, inhibition, significance) (Carcinogen: BENZO[A]PYRENE, 50-32-8, Dose [Inhibitor]: 0.03 MMOL/G OF DIET DAILY STARTING 7 D BEFORE AND CONTINUING THROUGH 3 D AFTER CARCINOGEN TREATMENT FOLLOWED BY OBSERVAT, Route [Inhibitor]: ORAL, Species: MOUSE, Strain/Sex: ICR/FEMALE, Target Tissue: Type of Lesion: FORESTOMACH: NEOPLASM, Dose [Carcinogen]: 1 MG IN 0.2 ML CORN OIL 2/WK FOR 4 WK, Promoter: NONE USED): 100%, 93%, 7%, not significant

CCCCC[Se]C#N
tumour outcome (control, treated, inhibition, significance) (Carcinogen: 7,12-DIMETHYLBENZ[A]ANTHRACENE, 57-97-6, Dose [Inhibitor]: 0.1, 2 PPM (SELENIUM) IN DIET FOR 3 WK BEGINNING 2 WK PRIOR TO CARCINOGEN DOSE (STUDY DURATION: 25 WK), Route [Inhibitor]: ORAL, Species: RAT, Strain/Sex: SPRAGUE-DAWLEY/FEMALE, Target Tissue: Type of Lesion: MAMMARY GLAND: TUMOR, Dose [Carcinogen]: 10 MG ONCE, Promoter: NONE USED): 25/30 (83%), 11/30 (37%), 55%, p<0.05

CC(C)(O)CCC(=O)C(C)(O)C1[C@H](O)C[C@@]2(C)[C@@H]3CC=C4[C@@H](C[C@H](O)[C@@H](O)C4(C)C)[C@]3(C)C(=O)C[C@]12C (stereo partly specified)
tumour outcome (control, treated, inhibition, significance) (Carcinogen: 7,12-DIMETHYLBENZ[A]ANTHRACENE, 57-97-6, Dose [Inhibitor]: 0, 85 NMOL IN 0.1 ML ACETONE APPLIED 1 HR PRIOR TO EACH PROMOTER DOSE 2/WK FOR 20 WK (STUDY DURATION: 21 WK), Route [Inhibitor]: DERMAL, Species: MOUSE, Strain/Sex: ICR/FEMALE, Target Tissue: Type of Lesion: SKIN: PAPILLOMA, Dose [Carcinogen]: 100 UG IN 0.1 ML ACETONE ONCE, Promoter: 12-O-TETRADECANOYLPHORBOL-13-ACETATE, 16561-29-8): 100%, 100%, 0%, not significant
